Assay results as given in PubChem BioAssay AID330 (DTP/NCI, 2004).
“And” between values parts separate entries of the source, which are not always exact repeats. Equal entries are not always repeated. Toxic doses and inconclusive results are not listed. Rule for the calls: active = survival T/C of 150% or more; inactive = T/C below 125% in these data.

Test system: P388 leukemia ip, CD2F1 mice, survival T/C
Assay: NCI In Vivo Anticancer Drug Screen. Data for tumor model P388 Leukemia (intraperitoneal) in CD2F1 (CDF1) mice
Settings: endpoint: median survival time, higher = longer survival
How it was run: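 Mice carrying the transplanted tumor received test compound or vehicle. Survival was recorded in each group, and the value is the treated-group measurement divided by that of the vehicle-treated control group.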

[1] = dose: 50.0 mg/kg/injection, schedule: Q01DX009 (ip), vehicle: saline with Tween-80
[2] = dose: 100.0 mg/kg/injection, schedule: Q01DX009 (ip), vehicle: saline with Tween-80
[3] = dose: 50.0 mg/kg/injection, schedule: Q01DX005 (ip), vehicle: Klucel (hydroxypropylcellulose) (HPC)
[4] = dose: 100.0 mg/kg/injection, schedule: Q01DX005 (ip), vehicle: Klucel (hydroxypropylcellulose) (HPC)
[5] = dose: 200.0 mg/kg/injection, schedule: Q01DX005 (ip), vehicle: Klucel (hydroxypropylcellulose) (HPC)
[6] = dose: 60.0 mg/kg/injection, schedule: Q01DX005 (ip), vehicle: Klucel (hydroxypropylcellulose) (HPC)
[7] = dose: 120.0 mg/kg/injection, schedule: Q01DX005 (ip), vehicle: Klucel (hydroxypropylcellulose) (HPC)
[8] = dose: 12.5 mg/kg/injection, schedule: Q01DX009 (ip), vehicle: saline with Tween-80
[9] = dose: 25.0 mg/kg/injection, schedule: Q01DX009 (ip), vehicle: saline with Tween-80
[10] = dose: 50.0 mg/kg/injection, schedule: Q01DX005 (ip), vehicle: saline with Tween-80
[11] = dose: 100.0 mg/kg/injection, schedule: Q01DX005 (ip), vehicle: saline with Tween-80

Measured: T/C

C/C(=N\NC(=S)Nc1ccc(N(C)C)cc1)c1ccccn1
inactive: [1] 118 % of control | [2] 105 % of control

Nc1ccc(C(=O)Nc2ccc(S(=O)(=O)O)c3cccc(O)c23)cc1
inactive: [3] 109 % of control | [4] 111 % of control | [5] 109 % of control

CCN(CCO)CC(O)Cn1cnc2ncnc(N)c21 (stereo unspecified) (tested in a mixture with another compound)
inactive: [6] 97 % of control | [7] 94 % of control | dose: 240.0 mg/kg/injection, schedule: Q01DX005 (ip), vehicle: Klucel (hydroxypropylcellulose) (HPC) 95 % of control

CCCCCCC1(/C=C/c2ccc(Cl)c(Cl)c2)OCCS1 (stereo unspecified)
inactive: dose: 12.5 mg/kg/injection, schedule: Q01DX009 (ip), vehicle: saline 96 % of control | dose: 25.0 mg/kg/injection, schedule: Q01DX009 (ip), vehicle: saline 104 % of control | dose: 50.0 mg/kg/injection, schedule: Q01DX009 (ip), vehicle: saline 100 % of control and 109 % of control and 95 % of control | dose: 100.0 mg/kg/injection, schedule: Q01DX009 (ip), vehicle: saline 95 % of control | dose: 200.0 mg/kg/injection, schedule: Q01DX009 (ip), vehicle: saline 88 % of control

O=C1C=CCCCC1
inactive: dose: 12.5 mg/kg/injection, schedule: Q01DX009 (ip), vehicle: saline + Tween-80 + alcohol 102 % of control | dose: 25.0 mg/kg/injection, schedule: Q01DX009 (ip), vehicle: saline + Tween-80 + alcohol 98 % of control | dose: 44.0 mg/kg/injection, schedule: Q01DX009 (ip), vehicle: saline with Tween-80 109 % of control | dose: 50.0 mg/kg/injection, schedule: Q01DX009 (ip), vehicle: saline + Tween-80 + alcohol 100 % of control | dose: 66.0 mg/kg/injection, schedule: Q01DX009 (ip), vehicle: saline with Tween-80 109 % of control

CC(=Nc1ccc(Cl)cc1N)c1c(O)cc(C)oc1=O
inactive: [6] 91 % of control | [7] 96 % of control

Nc1nc[nH]c(=O)c1NC(=O)c1cccc([N+](=O)[O-])c1
inactive: [8] 101 % of control | [9] 100 % of control | [1] 96 % of control | [2] 99 % of control

COc1ccc(CC(=O)Cc2ccc(OC)c(OC)c2)cc1OC
inactive: [1] 101 % of control | [2] 111 % of control | dose: 200.0 mg/kg/injection, schedule: Q01DX009 (ip), vehicle: saline with Tween-80 95 % of control | dose: 400.0 mg/kg/injection, schedule: Q01DX009 (ip), vehicle: saline with Tween-80 99 % of control | dose: 600.0 mg/kg/injection, schedule: Q01DX009 (ip), vehicle: saline with Tween-80 87 % of control

CN1CCC(CN2c3ccccc3Sc3ccccc32)CC1
inactive: [9] 95 % of control | dose: 25.0 mg/kg/injection, schedule: Q04DX003 (ip), vehicle: saline with Tween-80 100 % of control | [1] 100 % of control | dose: 50.0 mg/kg/injection, schedule: Q04DX003 (ip), vehicle: saline with Tween-80 109 % of control | [2] 95 % of control | dose: 100.0 mg/kg/injection, schedule: Q04DX003 (ip), vehicle: saline with Tween-80 109 % of control

Cc1cc(NC(=O)Nc2ccc(C3=NCCN3)cc2)ccc1NC(=O)Nc1ccc(C2=NCCN2)cc1
inactive: dose: 100.0 mg/kg/injection, schedule: Q04DX003 (ip), vehicle: saline 100 % of control | dose: 200.0 mg/kg/injection, schedule: Q04DX003 (ip), vehicle: saline 104 % of control | dose: 400.0 mg/kg/injection, schedule: Q04DX003 (ip), vehicle: saline 109 % of control

CC(C)=N/N=C(/N)[Se]
inactive: dose: 3.12 mg/kg/injection, schedule: Q01DX009 (ip), vehicle: saline with Tween-80 95 % of control | dose: 6.25 mg/kg/injection, schedule: Q01DX009 (ip), vehicle: saline with Tween-80 103 % of control | [8] 97 % of control

O=C(CCCCCCCC(=O)Nc1ccc2c(=O)c3ccccc3[nH]c2c1)Nc1ccc2c(=O)c3ccccc3[nH]c2c1
inactive: [10] 103 % of control | [11] 110 % of control | dose: 200.0 mg/kg/injection, schedule: Q01DX005 (ip), vehicle: saline with Tween-80 92 % of control

c1ccc(-c2c[n+]3ccccc3n2-c2ccccc2)cc1
inactive: dose: 1.56 mg/kg/injection, schedule: Q01DX009 (ip), vehicle: saline 100 % of control | dose: 3.12 mg/kg/injection, schedule: Q01DX009 (ip), vehicle: saline 94 % of control | dose: 6.25 mg/kg/injection, schedule: Q01DX009 (ip), vehicle: saline 101 % of control and 92 % of control

O=C(C[N+]12CN3CN(CN(C3)C1)C2)c1ccc2c(c1)CCCC2
inactive: [3] 100 % of control | [4] 103 % of control | [5] 106 % of control

CC1(C)CNC(=O)C2=C(O1)C(=O)OC2
inactive: dose: 100.0 mg/kg/injection, schedule: Q04DX002 (ip), vehicle: saline with Tween-80 100 % of control | dose: 200.0 mg/kg/injection, schedule: Q04DX002 (ip), vehicle: saline with Tween-80 100 % of control | dose: 400.0 mg/kg/injection, schedule: Q04DX002 (ip), vehicle: saline with Tween-80 103 % of control

N=C(N)n1ncc2c1CCC/C2=N/N=C(N)N
inactive: dose: 60.0 mg/kg/injection, schedule: Q01DX005 (ip), vehicle: saline with Tween-80 99 % of control | dose: 120.0 mg/kg/injection, schedule: Q01DX005 (ip), vehicle: saline with Tween-80 96 % of control | dose: 240.0 mg/kg/injection, schedule: Q01DX005 (ip), vehicle: saline with Tween-80 103 % of control

COc1ccc2cc1Oc1ccc(cc1)C[C@H]1c3cc(c(OC)cc3CCN1C)Oc1c(OC)c(OC)cc3c1[C@H](C2)N(C)CC3
inactive: dose: 12.5 mg/kg/injection, schedule: Q01DX009 (ip), vehicle: other 94 % of control and 95 % of control | dose: 25.0 mg/kg/injection, schedule: Q01DX009 (ip), vehicle: other 100 % of control and 97 % of control | dose: 25.0 mg/kg/injection, schedule: Q04DX003 (ip), vehicle: suspension in saline 98 % of control | dose: 50.0 mg/kg/injection, schedule: Q01DX009 (ip), vehicle: other 100 % of control and 97 % of control | dose: 50.0 mg/kg/injection, schedule: Q04DX003 (ip), vehicle: suspension in saline 88 % of control | dose: 100.0 mg/kg/injection, schedule: Q01DX009 (ip), vehicle: other 103 % of control | dose: 100.0 mg/kg/injection, schedule: Q04DX003 (ip), vehicle: suspension in saline 89 % of control | dose: 200.0 mg/kg/injection, schedule: Q04DX003 (ip), vehicle: suspension in saline 87 % of control

O=C1OC(c2ccccc2)(c2ccccc2)CC12CC(c1ccccc1)(c1ccccc1)OC2=O
inactive: [10] 91 % of control | [11] 94 % of control
